Source: US20050288347A1, “Certain triazole-based compounds, compositions, and uses thereof” (priority 2004, published 2005)
Entries after “also recorded” stand apart in the source; their conditions may differ.

Tested on: protein kinase
Assay: HTS ATP-utilizing enzyme assay, off-chip mobility-shift format (Caliper HTS 250)
Assay type: biochemical, human
Conditions: test compound 10 μM; for protein kinase against which the compound exhibits inhibitory activity (Table 3): active = activity greater than three-sigma from the mean of the predominately inactive population for that enzyme; for Kinase: kinase(s) for which the compound exhibits protein kinase inhibitory activity, active = greater than three-sigma from the mean activity of inactive compounds
Summary of the method: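 Kinase reactions ran 2.5 h at 20 to 22 °C with test compound at 10 μM, in a HEPES pH 7.5 master buffer containing Triton X-100 and BSA. Peptide substrate and phosphorylated product separated by mobility shift; inhibition normalized to DMSO (0%) and EDTA (100%) controls, with three-sigma thresholds for hits.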

| SMILES | protein kinase against which the compound exhibits inhibitory activity (Table 3) | Kinase |
| --- | --- | --- |
| CCn1c(COc2ccc(Cl)cc2)nnc1SCCN1CCCCC1 | INSR and PDGFRR-α and CHEK1 |  |
| Cn1c(CCc2nc3ccccc3[nH]2)nnc1SCCN1CCCCC1 | AURORA-A |  |
| COCCNC(=O)CSc1nnc(-c2ccccc2O)n1-c1ccccc1OC | KIT |  |
| CCn1c(CNc2ccccc2Cl)nnc1SCCN1CCCCC1 | MAPKAPK-2 |  |
| COCCn1c(SCCN2CCOCC2)nnc1-c1cc2ccccc2cc1O | CHEK2 |  |
| COc1ccccc1-n1c(SCCN2CCCCC2)nnc1-c1cccnc1 | AURORA-A |  |
| c1cncc(-c2nnc(SCCN3CCCCC3)[nH]2)c1 | GSK3-α |  |
| N#Cc1cccc(CSc2nnc(-c3cccs3)[nH]2)c1 | AURORA-A; also recorded: GSK3-β; also recorded: GSK3-α |  |
| FC(F)(F)c1cccc(-c2nnc(SCC3CCCO3)[nH]2)c1 (stereo not drawn) | AURORA-A |  |
| Cc1nn(-c2ccccc2)c2sc(-c3nnc(SCCN4CCCCC4)n3C)cc12 | GSK3-α; also recorded: CHEK2 |  |
| COc1ccc(-n2c(COc3ccc4ccccc4c3)nnc2SCCN2CCOCC2)cc1 | CDK2-cyclinE |  |
| Cc1cc(OCc2nnc(SCCN3CCOCC3)n2Cc2ccccc2)ccc1Cl | AURORA-A |  |
| Cc1nn(-c2ccccc2)c2sc(-c3nnc(SCCN4CCOCC4)n3C)cc12 | GSK3-α; also recorded: GSK3-β; also recorded: DAPK1 |  |
| COc1ccc(-n2c(SCCN3CCOCC3)nnc2-c2ccc(O)cc2)cc1 | GSK3-α; also recorded: GSK3-β |  |
| CCn1c(SCc2ccc(-c3csnn3)cc2)nnc1-c1cc(-c2ccccc2)nc2ccccc12 | c-TAK1 |  |
| Oc1ccc(-c2nnc(SCCN3CCCCC3)n2Cc2ccco2)cc1 | GSK3-α |  |
| FC(F)Oc1ccccc1CSc1nnc(-c2cc(-c3ccccc3)nc3ccccc23)n1Cc1ccco1 | c-TAK1 |  |
| CCOc1ccc2nc(-c3ccc(OC)cc3)cc(-c3nnc(SCc4ccc(F)cc4F)n3C)c2c1 | CHEK2 |  |
| CCOc1ccc(NCc2nnc(SCCN3CCOCC3)n2-c2ccc(OC)cc2)cc1 | FYN |  |
| CCOc1ccc(NCc2nnc(SCCN3CCCCC3)n2-c2ccccc2)cc1 | PDGFRR-α and FYN |  |
| CCOc1ccc(NCc2nnc(SCCN3CCCCC3)n2-c2ccc(C)cc2)cc1 | FYN and PDGFRR-α |  |
| CCOc1ccc(NCc2nnc(SCCN3CCOCC3)n2-c2ccc(C)cc2)cc1 | FYN |  |
| CCOc1ccc(NCc2nnc(SCCN3CCOCC3)n2-c2ccccc2)cc1 | FYN |  |
| Cn1c(CNc2ccc(F)cc2)nnc1SCCN1CCOCC1 | PDGFRR-α |  |
| Fc1ccc(NCc2nnc(SCCN3CCOCC3)n2-c2ccccc2)cc1 | CDK2-cyclinA |  |
| COc1ccc(NCc2nnc(SCCN3CCCCC3)n2-c2ccccc2OC)cc1 | FYN and PDGFRR-α and FLT-3 |  |
| COc1ccc(NCc2nnc(SCCN3CCCCC3)n2-c2ccc(OC)cc2)cc1 | FYN |  |

| SMILES | protein kinase against which the compound exhibits inhibitory activity (Table 3) | Kinase |
| --- | --- | --- |
| COc1ccc(NCc2nnc(SCCN3CCCCC3)n2C)cc1 | FYN and PDGFRR-α |  |
| CCOc1ccc2nc(-c3ccc(OC)cc3)cc(-c3nnc(SCc4ccc(F)cc4C(F)(F)F)n3C)c2c1 | AURORA-A |  |
| COc1ccccc1-n1c(SC(C)C(=O)Nc2cccc(NC(=O)c3ccco3)c2)nnc1-c1cccc(Cl)c1 (stereo not drawn) | ROCK2 |  |
| CCOc1ccc(NCc2nnc(SCCN3CCOCC3)n2-c2cccc(Cl)c2)cc1 | FYN and FLT-3 and PDGFRR-α |  |
| COc1ccc(NCc2nnc(SCCN3CCCCC3)n2-c2cccc(Cl)c2)cc1 | FYN and PDGFRR-α and FLT-3 |  |
| COc1ccc(NCc2nnc(SCCCC3CCCCC3)n2C)cc1 | PDGFRR-α and FYN and FLT-3 |  |
| OC(CSc1nnc(-c2cccnc2)[nH]1)C(F)(F)F (stereo not drawn) [1,1,1-trifluoro-3-(5-(pyridin-3-yl)-4H-1,2,4-triazol-3-ylthio)propan-2-ol] | AURORA-A |  |
| OC(CSc1nnc(-c2cccs2)[nH]1)C(F)(F)F (stereo not drawn) [1,1,1-trifluoro-3-(5-(thiophen-2-yl)-4H-1,2,4-triazol-3-ylthio)propan-2-ol] | AURORA-A; also recorded: DYRK2 |  |
| COc1ccccc1-c1nnc(SCCSc2nnc(-c3ccccc3OC)n2-c2ccc(C)cc2)n1-c1ccc(C)cc1 [1,2-bis(5-(2-methoxyphenyl)-4-p-tolyl-4H-1,2,4-triazol-3-ylthio)ethane] | CDK1 |  |
| CCn1c(SCCSc2nnc(C3CCCCC3)n2CC)nnc1C1CCCCC1 [1,2-bis(5-cyclohexyl-4-ethyl-4H-1,2,4-triazol-3-ylthio)ethane] | CHEK2 |  |
| O=C(CSc1nnc(-c2ccncc2)[nH]1)c1c[nH]c2ccccc12 [1-(1H-indol-3-yl)-2-(5-(pyridin-4-yl)-4H-1,2,4-triazol-3-ylthio)ethanone] |  | CHEK2 and AURORA-A and PKA |
| CCn1c(SCCN2CCCCC2)nnc1-c1ccc([N+](=O)[O-])cc1 [1-(2-(4-ethyl-5-(4-nitrophenyl)-4H-1,2,4-triazol-3-ylthio)ethyl)piperidine] | PDGFRR-α |  |
| COc1ccc(-c2nnc(SCCN3CCCCC3)[nH]2)cc1 [1-(2-(5-(4-methoxyphenyl)-4H-1,2,4-triazol-3-ylthio)ethyl)piperidine] | GSK3-α; also recorded: DYRK2; also recorded: GSK3-β |  |
| O=C(CSc1nnc(-c2ccco2)[nH]1)c1ccc(O)c(O)c1 [1-(3,4-dihydroxyphenyl)-2-(5-(furan-2-yl)-4H-1,2,4-triazol-3-ylthio)ethanone] |  | FYN and PDGFRR-α and FLT-3 |
| Nc1nncn1C(=O)Cc1ccc(Cl)cc1 [1-(3-amino-4H-1,2,4-triazol-4-yl)-2-(4-chlorophenyl)ethanone] |  | GSK-3-α; also recorded: GSK-3-β |
| COc1ccc(-c2nnc(SCC(C)=O)n2-c2ccccc2)cc1 [1-(5-(4-methoxyphenyl)-4-phenyl-4H-1,2,4-triazol-3-ylthio)propan-2-one] |  | INSR |
| O=C(CSc1nnc(-c2cccnc2)[nH]1)c1ccccc1 [1-phenyl-2-(5-(pyridin-3-yl)-4H-1,2,4-triazol-3-ylthio)ethanone] |  | AURORA-A |
| Cc1cccc(-c2nnc(SCC(=O)c3ccccc3)[nH]2)c1 [1-phenyl-2-(5-m-tolyl-4H-1,2,4-triazol-3-ylthio)ethanone] |  | FLT-3; also recorded: AURORA-A |
| O=C1c2ccccc2C(=O)N1CCSc1nnc(-c2ccc([N+](=O)[O-])cc2)[nH]1 [2-(2-(5-(4-nitrophenyl)-4H-1,2,4-triazol-3-ylthio)ethyl)isoindoline-1,3-dione] | GSK3-α |  |
| O=C1c2ccccc2C(=O)N1CCSc1nnc(-c2cccs2)[nH]1 [2-(2-(5-(thiophen-2-yl)-4H-1,2,4-triazol-3-ylthio)ethyl)isoindoline-1,3-dione] | AURORA-A; also recorded: GSK3-α; also recorded: DYRK2 |  |
| O=C1c2ccccc2C(=O)N1CCSc1nnc(-c2ccccc2)[nH]1 [2-(2-(5-phenyl-4H-1,2,4-triazol-3-ylthio)ethyl)isoindoline-1,3-dione] | AURORA-A; also recorded: GSK3-β; also recorded: GSK3-α |  |
| Cc1ccc(-c2nnc(SCC(=O)O)n2-c2ccc(C)cc2)cc1 [2-(4,5-dip-tolyl-4H-1,2,4-triazol-3-ylthio)acetic acid] |  | DAPK1 |
| Cc1ccc(-c2nnc(SC(C)C(=O)O)n2-c2ccc(C)cc2)cc1 (stereo not drawn) [2-(4,5-dip-tolyl-4H-1,2,4-triazol-3-ylthio)propanoic acid] |  | DAPK1 |
| COc1ccccc1-n1c(SCC(=O)O)nnc1-c1ccccc1C [2-(4-(2-methoxyphenyl)-5-o-tolyl-4H-1,2,4-triazol-3-ylthio)acetic acid] |  | CHEK2 |
| O=C(O)CSc1nnc(-c2cccnc2)n1-c1ccc(F)cc1 [2-(4-(4-fluorophenyl)-5-(pyridin-3-yl)-4H-1,2,4-triazol-3-ylthio)acetic acid] |  | AURORA-A |
| COc1ccc(-n2c(SC(C)C(=O)O)nnc2-c2ccccc2)cc1 (stereo not drawn) [2-(4-(4-methoxyphenyl)-5-phenyl-4H-1,2,4-triazol-3-ylthio)propanoic acid] |  | AURORA-A |
| O=C(O)CSc1nnc(-c2cccnc2)n1Cc1ccco1 [2-(4-(furan-2-ylmethyl)-5-(pyridin-3-yl)-4H-1,2,4-triazol-3-ylthio)acetic acid] |  | DAPK1; also recorded: GSK3-β; also recorded: AURORA-A |
